Blank lines part the entries; values can stand above or below the sequence they belong to.
Biological target: T1, MyD88^TIR (Homo sapiens, UniProt Q99836)
T1 construct: MyD88 (residues 148–296); 6xHis; made in house; host or cells: E. coli BL21 (DE3)
Assay: T‐Surf phage library (P8 and P3) selection against MyD88^TIR, four rounds, NGS read counts
Type: binding
Conditions: for P8_MyD88 Rank (after) / P8_MyD88 Rank (before): P8 library; for P3_MyD88 Rank (after) / P3_MyD88 Rank (before): P3 library; for Population: 4th round of selection against MyD88 TIR, share of NGS reads
Description: T‐Surf libraries were screened against the immobilized TIR domains of two major human TLR adaptor proteins, MAL^TIR and MyD88^TIR, allowing cross‐species selection of TIR‐binding motifs with 190 946 TIR‐derived peptides in a single binding assay (Scheme 1). Enriched phage pools from the fourth round of selection were analyzed using NGS after barcoding the peptide‐coding regions of the phage pools.
Phage display screening was performed by coating two wells of a 96‐well plate (Maxisorp, Thermo Fisher Scientific) with 100 µL of 5 µg mL^−1 TIR domains overnight; then, the coated wells were blocked with 200 µL of blocking buffer (0.2% BSA in PBS) and set aside for 1 h at 4 °C with gentle shaking. Next, 100 µL of the phage library was added to the wells and incubated for 1 h at room temperature (RT; 20 – 22 °C) with gentle shaking. The plate was washed four times with PBS containing 0.5% Tween‐20; the bound phages were eluted by adding 100 µL of 100 mM HCl to each well. The elute was neutralized with 10 µL of 1.0 M Tris‐HCl (pH 11.0). E. coli TG1 cells were grown to the log phase (A600 = ≈0.6), and 1 mL of the culture was incubated with 100 µL of the eluted phages for 30 min at 37 °C, with shaking at 200 rpm. Next, 1 µL of M13KO7 helper phages was added, followed by incubation for 45 min at 37 °C, with shaking. Subsequently, the cells were transferred to 25 mL of 2× yeast extract tryptone/carbenicillin/kanamycin medium and incubated overnight at 37 °C with shaking at 200 rpm. The amplified phages were precipitated with 20% PEG‐8000/2.5 M NaCl to be used for the next round of selection.
The naïve T‐Surf libraries in P8 and P3 and the enriched phage pools after four rounds were barcoded for NGS as previously described.^[ [59] ^] Briefly, 5 µL of the phage pool was used as a template for 20 cycles of a 50 µL PCR reaction using […] each of forward and reverse barcoded primers and PrimeSTAR Max DNA Polymerase. The PCR products were purified using Expin Gel SV (GeneAll). The NGS samples were quantified using qPCR, following the qPCR Quantification Protocol Guide (KAPA Library Quantification kits for Illumina Sequencing Platform), and qualified using the TapeStation High Sensitivity D1000 ScreenTape (Agilent Technologies). The indexed libraries were further sequenced by Macrogen (Seoul, Republic of Korea) using the NovaSeq platform (Illumina) with 100 bp paired‐end reads. The reads were demultiplexed by barcodes and filtered for an average Phred quality score of at least 30, followed by trimming the flanking consensus sequences using Cutadapt (version 2.3). Peptide sequence populations were analyzed according to the read counts.

[1] = selection against MyD88 TIR, rank by count after grouping
[2] = selection against MyD88 TIR, rank by count before grouping
[3] = P8_MyD88: rank by count after grouping
[4] = P8_MyD88: rank by count before grouping
[5] = P8_MyD88 pool: P8 T-Surf phage library
[6] = P8_MyD88: rank by NGS read count after grouping
[7] = P8_MyD88: rank by NGS read count before grouping
[8] = 4R selection against MyD88, rank after grouping
[9] = 4R selection against MyD88, rank before grouping
[10] = P3_MyD88: rank by count after grouping
[11] = P3_MyD88: rank by count before grouping
[12] = selection against MyD88, rank by count after grouping
[13] = selection against MyD88, rank by count before grouping
[14] = selection against MyD88, rank after grouping
[15] = selection against MyD88, rank before grouping

T1 sequence (Q99836 148-296): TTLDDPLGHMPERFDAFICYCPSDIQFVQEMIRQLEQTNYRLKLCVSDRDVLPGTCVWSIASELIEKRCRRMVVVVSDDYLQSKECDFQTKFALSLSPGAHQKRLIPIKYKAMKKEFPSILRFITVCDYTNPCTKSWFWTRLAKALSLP

P3_MyD88 Rank (after) [1]: 235
P3_MyD88 Rank (before) [2]: 3242
Sequence: SSFRERLCRLLELSKK

Rank (after) [3]: 122
Rank (before) [4]: 129
Population [5]: 0.0143%
Sequence: GFIDNLYQALANMGIH

Rank (after) [6]: 904
Rank (before) [7]: 2439
Sequence: DWVWDYLLPNLEGHAT

Rank (after) [10]: 449
Rank (before) [11]: 2551
Sequence: RFWERLRPALKERLP

Rank (after) [10]: 433
Rank (before) [11]: 1536
Sequence: YAFTGHPPRYLVQRGV

P3_MyD88 Rank (after) [1]: 280
P3_MyD88 Rank (before) [2]: 3218
Sequence: SSFREGQWCLMELCKK

P3_MyD88 Rank (after) [12]: 712
P3_MyD88 Rank (before) [13]: 2957
Sequence: SENYVTSPCAVDELVP

P8_MyD88 Rank (after) [8]: 672
P8_MyD88 Rank (before) [9]: 2318
Sequence: AWVGDYLLPNLEGPAG

P3_MyD88 Rank (after) [14]: 541
P3_MyD88 Rank (before) [15]: 2992
Sequence: SENYATSPWRWMNWC

Rank (after) [3]: 124
Rank (before) [4]: 131
Population [5]: 0.0135%
Sequence: YASSTWALDELLQIFE

Population [5]: 0.00617%
Sequence: DPQDLDWLYERLVSLF

Rank (after) [3]: 155
Rank (before) [4]: 238
Sequence: NYASSSWALDELLRILY

More lines, now with the values behind:

Sequence: PQELEWCYERLVSLIL
P8_MyD88 Rank (after) [1]: 240
P8_MyD88 Rank (before) [2]: 3497

Sequence: DPQDLAWSYERLVSLF
P8_MyD88 Rank (after) [1]: 255
P8_MyD88 Rank (before) [2]: 2732

Sequence: SENYATSPWALMNWC
P3_MyD88 Rank (after) [8]: 655
P3_MyD88 Rank (before) [9]: 2985

Sequence: YASSSWALDELWLILEQR
Rank (after) [6]: 961
Rank (before) [7]: 1883

Sequence: WALDGLLKILHARELF
Rank (after) [3]: 409
Rank (before) [4]: 1413

Sequence: YASSSWALDELWNIF
Rank (after) [3]: 167
Rank (before) [4]: 193
Population [5]: 0.00617%

Sequence: SMMPSSDFWKELALAL
P8_MyD88 Rank (after) [1]: 217
P8_MyD88 Rank (before) [2]: 369

Sequence: FDASTWFFQEWARFL
Rank (after) [6]: 930
Rank (before) [7]: 1313

Sequence: YELDFSHFWLFEGPAG
P8_MyD88 Rank (after) [1]: 245
P8_MyD88 Rank (before) [2]: 538

Sequence: DPQDQEWFYERLFSHV
Rank (after) [3]: 438
Rank (before) [4]: 2970

Sequence: NQWHNALTAAANLSGW
Population (P3_MyD88 pool: P3 T-Surf phage library): 0.00291%

Sequence: YSFTGQLHLYLIHRGV
Rank (after) [10]: 462
Rank (before) [11]: 1433

Sequence: AVDKKTDKIQTPRKNA
Rank (after) [10]: 468
Rank (before) [11]: 1938

Sequence: NELVHVWSSKANSLVG
P8_MyD88 Rank (after) [12]: 696
P8_MyD88 Rank (before) [13]: 3874

Sequence: LKAESCRQALEKSGKR
P3_MyD88 Rank (after) [8]: 631
P3_MyD88 Rank (before) [9]: 2533

Sequence: YATSSWALNELVYLIM
Rank (after) [3]: 146
Rank (before) [4]: 162
Population [5]: 0.00886%

Sequence: LGYKRIDWEYFVGIED
P8_MyD88 Rank (after) [14]: 573
P8_MyD88 Rank (before) [15]: 3354

Sequence: AEFWERLRMTVLETME
Rank (after) [3]: 398
Rank (before) [4]: 1024

Sequence: CLLLSVFQTLFARRTE
Rank (after) [6]: 877
Rank (before) [7]: 1353

Sequence: YYFTDWDSEAEIIQKM
Rank (after) [3]: 112
Rank (before) [4]: 118
Population [5]: 0.02%

Sequence: LVSHEISKKVKIFATI
P3_MyD88 Rank (after) [8]: 638
P3_MyD88 Rank (before) [9]: 2265

Sequence: LGYHWVDWEYCVGIED
Rank (after) [3]: 479
Rank (before) [4]: 3233

Sequence: KEVKGWRDALTTVASL
P3_MyD88 Rank (after) [1]: 252
P3_MyD88 Rank (before) [2]: 3659

Sequence: LQNQWKLALNKVANLP
Rank (after) [10]: 417
Rank (before) [11]: 2361

Sequence: YASSSWALLELSKIFEAM
Rank (after) [6]: 994
Rank (before) [7]: 1899

Sequence: DVVCDYLLPNLEGPAG
P8_MyD88 Rank (after) [8]: 606
P8_MyD88 Rank (before) [9]: 2555

Sequence: YLKWGYPWFGIVCVL
Rank (after) [10]: 166
Rank (before) [11]: 855

Sequence: DWGWGYLLPNLEGPAG
P8_MyD88 Rank (after) [12]: 707
P8_MyD88 Rank (before) [13]: 2481

Source: paper PMC11714206, “Massively Parallel Screening of Toll/Interleukin‐1 Receptor (TIR)‐Derived Peptides Reveals Multiple Toll‐Like Receptors (TLRs)‐Targeting Immunomodulatory Peptides” (Advanced Science, 2024)
